Bridge positions count the residues as written; N and C are the ends. Peptide text beside a SMILES is read from it.
Key:
[1] = oral bioavailability in rats, radioimmunoassay (RIA) detection; settings: female, CD, rat, in vivo
Method: Oral bioavailability was also determined using a radioimmunoassay (RIA) detection method. Female CD-1 mice (Charles River, Wilmington, Mass.) weighing approximately 25g (7-8 weeks old) or female CD rats (Charles River, Wilmington, Mass.) weighing approximately 153 g were included in this study. Monoclonal antibody, 20C1 (Brandwein et al. 1985 Infect Immun. 47:242-246), which recognizes SEQ ID NO:7 and ^125I labeled-SEQ ID NO:7, a labeled tracer, were used in these experiments. The labeled tracer was purified by HPLC using a Waters C-18u Bondapak® column (25 cm) previously equilibrated with 10 mM ammonium acetate pH 5.8. A gradient from 0 to 25% acetonitrile was applied to the column in 60 min, followed by isocratic elution at 25% acetonitrile for another 20 min. This method separated two monoiodinated forms from each other and from unlabeled precursor (Thompson et al. 1985 Anal Biochem. 148:26-36). […] The labeled tracer bad a specific activity of 2200 Ci/mmol. The tracer was stored in aliquots at −20° C. Animals were fasted overnight before administration of compounds. Animals received SEQ ID NO:3 (rats—10 mg/kg; mice 8 mg/kg) or vehicle alone (20 mM Tris-HCl, ph7.5) intravenously or orally. Blood was drawn from all dosed animals by retro-orbital eye bleeding at specific intervals and test compound levels were analyzed by radioimmunoassay (RIA). SEQ ID NO:3 was extracted from the serum or plasma using Amersham Biosciences Amprep C18 columns (100 mg). Samples (80 μL) were first diluted to 0.5 mL with start buffer (8% methanol, 0.095% TFA in water) and applied to C18 columns previously conditioned with 1 mL methanol and equilibrated with 2 mL of start buffer. […] Radioactivity was measured in a LS 6500 scintillation counter (Beckman-Coulter). The binding efficiency is defined as the percent radioactivity in the B0 sample compared to the input counts. The percent bound in each sample was calculated by the equation: […]
A standard curve was prepared by plotting % B/B0 as a function of the log SEQ ID NO:3 concentration. […] Oral Bioavailabilty (F) is calculated using the equation: […]

[2] = oral bioavailability in rats, LCMS detection; assay type: in vivo; settings: for AUC / bioavailability: rat, plasma, 10 mg/kg; for bioavailability: oral, read-out: 6 h bioavailability determined by circulating plasma levels
Method: Similarly, oral bioavailabity was determined in rats using LCMS methodology. Rat plasma samples containing SEQ ID NO:3 and/or SEQ ID NO:6 were extracted using a Waters Oasis MAX 96 well solid phase extraction (SPE) plate. A 200 μL volume of rat plasma was mixed with 200 μL of ^13C9, ^15N—SEQ ID NO:3 in the well of a prepared SPE plate. The samples were drawn through the stationary phase with 15 mm Hg vacuum. All samples were rinsed with 200 μL of 2% ammonium hydroxide in water followed by 200 μL of 20% methanol in water. The samples were eluted with consecutive 100 μL volumes of 5/20/75 formic acid/water/methanol and 100 μL 5/15/80 formic acid/water/methanol. The samples were dried under nitrogen and resuspended in 100 μL of 20% methanol in water. Samples were analyzed by a Waters Quattro Micro mass spectrometer coupled to a Waters 1525 binary pump with a Waters 2777 autosampler. A 40 μL volume of each sample was injected onto a Thermo Hypersil GOLD C18 column (2.1×50 mm, 5 um). SEQ ID NO:3 and SEQ ID NO:6 were eluted by a gradient over 3 minutes with acetonitrile and water containing 0.05% trifluoroacetic acid. The Quattro Micro mass spectrometer was run in multiple reaction monitoring (MRM) mode using the mass transitions of 764>182 and 682>136 for SEQ ID NO:3 and SEQ ID NO:6 respectively. Using this methodology, SEQ ID NO:3 was dosed orally and by IV to rats at 10 mg/kg. […] To determine the oral biovailability of SEQ ID NO:6, this peptide was dosed to rats at 10 mg/kg. In this experiment, the limit of detection (LOD) for SEQ ID NO:6 was 0.78 nM. SEQ ID NO:6 was detected at all time points for the intravenous dose and was not detected beyond 240 min for the oral dose. For non-detected values, the LOD was used as an upper estimate of the concentration of SEQ ID NO:6. The calculated value for AUCp.o., (0-6h) was […] and AUCi.v., (0-6h) was 1,590,000 nM-min. The 6 h bioavailability of SEQ ID NO:6 determined by circulating plasma levels was 0.08%

| Structure (SMILES) | AUC ([1]; 10 mg/kg intravenous, read-out: AUCi.v.,(0-6h) (converted)) | AUC ([1]; 10 mg/kg oral, read-out: AUCp.o.,(0-6h) (converted)) | bioavailability ([1]; oral, 10 mg/kg, over 6 hours) | AUC ([2]; iv, rats, 10 mg/kg IV, LCMS, read-out: AUC of SEQ ID NO:3, intravenously administered (converted)) | bioavailability ([2]; rats, LCMS) | AUC ([2]; po, rats, 10 mg/kg oral, LCMS, read-out: AUC of SEQ ID NO:3, orally dosed (converted)) | 6 h bioavailability when AUC values for SEQ ID NO:6 are included ([2]; rats, SEQ ID NO:3 10 mg/kg, LCMS) | AUC ([2]; iv, rats, SEQ ID NO:3 10 mg/kg IV, metabolite, read-out: AUC for SEQ ID NO:6 in SEQ ID NO:3 intravenously dosed rats (converted)) | AUC ([2]; iv, rats, SEQ ID NO:6 10 mg/kg intravenous, read-out: AUCi.v., (0-6h) (converted)) | AUC ([2]; po, rats, SEQ ID NO:3 10 mg/kg oral, metabolite, read-out: AUC for SEQ ID NO:6 in rats dosed orally with SEQ ID NO:3 (converted)) | AUC ([2]; po, rats, SEQ ID NO:6 10 mg/kg oral, LOD used for non-detected values, read-out: AUCp.o., (0-6h)) | detection as metabolite in plasma ([2]; rats dosed with SEQ ID NO:3) | last time detected in plasma after the oral dose ([2]; rats, SEQ ID NO:6 10 mg/kg oral, LOD 0.78 nM) |
| --- | --- | --- | --- | --- | --- | --- | --- | --- | --- | --- | --- | --- | --- |
| C[C@@H]1NC(=O)[C@@H]2CCCN2C(=O)[C@H](CC(N)=O)NC(=O)[C@@H]2CSSC[C@H](N)C(=O)N[C@H]3CSSC[C@H](NC1=O)C(=O)N[C@@H]([C@@H](C)O)C(=O)NCC(=O)N[C@H](C(=O)N[C@@H](Cc1ccc(O)cc1)C(=O)O)CSSC[C@H](NC(=O)[C@H](Cc1ccc(O)cc1)NC(=O)[C@H](CCC(=O)O)NC3=O)C(=O)N2 [SEQ ID NO:3] (H-CCEYCCNPACTGCY-OH; disulfide 1-6, 2-10, 5-13; N-terminus and C-terminus assumed) | 23700 ng·h/mL | 48.3 ng·h/mL | 0.2% | 12.3 µM·h | 0.11% | 0.0129 µM·h | 0.13% |  |  |  |  |  |  |
| C[C@@H]1NC(=O)[C@@H]2CCCN2C(=O)[C@H](CC(N)=O)NC(=O)[C@@H]2CSSC[C@H](N)C(=O)N[C@H]3CSSC[C@H](NC1=O)C(=O)N[C@@H]([C@@H](C)O)C(=O)NCC(=O)N[C@H](C(=O)O)CSSC[C@H](NC(=O)[C@H](Cc1ccc(O)cc1)NC(=O)[C@H](CCC(=O)O)NC3=O)C(=O)N2 [SEQ ID NO:6] (H-CCEYCCNPACTGC-OH; disulfide 1-6, 2-10, 5-13) |  |  |  |  | 0.08% |  |  | 0.0597 µM·h | 26.5 µM·h | 0.0036 µM·h | < 0.0218 µM·h | detected in the plasma | ≤ 240 min |

— US20090253634A1, “Methods and Compositions for the Treatment of Gastrointestinal Disorders” (MICROBIA, INC., priority 2005, published 2009)
